These are literature values, as cited in patent US10045993B2, “Pharmaceutical preparation containing entecavir as active ingredient, and preparation method therefor” (CTC BIO, INC., priority 2014, dated 2018).

For the data set the following is noted: pH 7.9, 25° C. (room temperature).

Consider `C=C1[C@H](CO)[C@@H](O)C[C@@H]1n1cnc2c(=O)[nH]c(N)nc21` [Entecavir, [1-S-(1α,3α,4β)]-2-amino-1,9-dihydro-9-[4-hydroxy-3-(hydroxymethyl)-2-methylenecyclopentyl]-6H-purin-6-one], for which the moisture solubility is 2400 µg/mL.
